In the experiment the test system is full thickness wound (2 x 2 cm). The experiment is described as follows: Wound healing (wound contraction and re-epithelialization) after topical hydrogel application to a full thickness skin wound in rats. The experiment is classed as in vivo, Male Wistar rats. On the procedure:
Male Wistar rats provided by Janvier, Espana weighing 150 - 200 g were housed in our animal facilities in groups of 3 animals, being each group in a conventional animal facility where the environmental temperature and relative humidity are monitored and controlled. The lighting schedule in the animal facility is 12 hours light and 12 hours dark. The rats were used after an acclimatization period of five days. After a week quarantine period animals were dosed.
The solutions were allowed to attain dissolution equilibrium for a period of 8 h. The appropriate amount of compound of formula (I) was added to the hydrogel solution for homogenization. […] The hydrogels were used immediately after preparation.
Rats were anesthetized with sodium pentobarbital (40 mg/kg, i.p.) before treatments application to keep the animal calm to allow absorption of the products.
The dorsal surface was shaved and a full thickness wound (2 x 2 cm) was made on the back of each rat by removing the skin (epidermis and dermis) and exposing paniculus carnosus.
Groups of 5 rats for treatment were used, and 0.5 g of hydrogel was topically applied in a wound (2 x 2 cm) on the back of each rat.
Treatments were applied from the first day until fourth day after wounding. […] From the fifth day post-wounding, lesions were left uncovered in all groups. The animals were housed in individual cages with free access to food and water. […]
The area of the wounds (cm^2) and % re-ephitelización were estimated by the difference between the total lesion area and the wound area still uncovered.
The efficacy of treatments was evaluated by measuring wound area and percentage of re-epithelialization vs total wound area.

Where [1] appears, read: day 5, 0.5 g of hydrogel topically applied from first until fourth day after wounding, groups of 5 rats.
[2] abbreviates: day 8, 0.5 g of hydrogel topically applied from first until fourth day after wounding, initial wound 2 x 2 cm.
[3] abbreviates: versus control hydrogel, from wound area at day 8.

The structures appear in SMILES notation.

`CC(=O)S[C@H]1CO[C@H]2[C@@H]1OC[C@H]2O[N+](=O)[O-]` [Compound 1, 2-acetylthioisosorbide 5-mononitrate]: the “% Re-epithelialization (day 5)” value under setting [1] stood at 100%. The “Wound area (cm^2) (day 8)” value under setting [2] came to 1.2 cm^2. Under setting [3], the “% Wound reduction vs control” value came out at 66%.

As to `CC(=O)S[C@@H]1CO[C@H]2[C@@H]1OC[C@H]2O[N+](=O)[O-]` [Compound 2, 2-acetylthioisomanide 5-mononitrate], the “% Re-epithelialization (day 5)” value under setting [1] is 100%. Moreover, the “Wound area (cm^2) (day 8)” value under setting [2] is 1.4 cm^2. Moreover, the “% Wound reduction vs control” value under setting [3] is on record as 60%.

In the case of `O=[N+]([O-])O[C@@H]1CO[C@H]2[C@@H]1OC[C@@H]2SS[C@H]1CO[C@H]2[C@@H]1OC[C@H]2O[N+](=O)[O-]` [Compound 3, 5'5'-dinitrato-2,2'ditioisosorbide], the “% Re-epithelialization (day 5)” value under setting [1] came to 100%. For the same molecule, the “Wound area (cm^2) (day 8)” value under setting [2] stood at 1.7 cm^2. Under setting [3], the “% Wound reduction vs control” value was determined as 51%.

With `CS[C@H]1CO[C@H]2[C@@H]1OC[C@H]2O[N+](=O)[O-]` [Compound 4, 2-Methylthioisosorbide 5-mononitrate], under setting [1], the “% Re-epithelialization (day 5)” value is recorded as 100%. In addition, the “Wound area (cm^2) (day 8)” value under setting [2] came out at 1.1 cm^2. The “% Wound reduction vs control” value under setting [3] is on record as 69%.

Regarding `CS(=O)(=O)[C@H]1CO[C@H]2[C@@H]1OC[C@H]2O[N+](=O)[O-]` [Compound 5, 2-Methylsulfonylisosorbide 5-mononitrate], the “% Re-epithelialization (day 5)” value under setting [1] is listed as 90%. The “Wound area (cm^2) (day 8)” value under setting [2] was 1.7 cm^2. In addition, under setting [3], the “% Wound reduction vs control” value came out at 51%.

On to `CCC[S+]([O-])[C@H]1CO[C@H]2[C@@H]1OC[C@H]2O[N+](=O)[O-]` (stereo partly drawn) [Compound 6, 2-[(R,S)-propylsulfinyl]isosorbide 5-mononitrate], for which the “% Re-epithelialization (day 5)” value under setting [1] came out at 90%. The “Wound area (cm^2) (day 8)” value under setting [2] is 1.1 cm^2. Moreover, under setting [3], the “% Wound reduction vs control” value turned out to be 69%.

Regarding `O=[N+]([O-])O[C@@H]1CO[C@H]2[C@@H]1OC[C@@H]2O` [Compound 7, Isosorbide 5-mononitrate, reference compound], under “rat, in vivo”, the “% Re-epithelialization (day 5)” value stood at 60%, the “% Wound reduction vs control” value was 60% and the “Wound area (cm^2) (day 8)” value is on record as 1.4 cm^2.
